Patent publication US4454140A, “Nasal administration of dextromethorphan” (Hoffmann-La Roche Inc., priority 1982, dated 1984)
Where “and” joins values, the source holds several entries; their conditions need not be identical. Identical values can stand only once. Like-named read-outs stand apart in the source and are kept apart here.

Assay: bioavailability of dextromethorphan after nasal, oral and intravenous administration (plasma levels, spectrofluorophotometric)
Type: in vivo, female beagle dogs
Details: for AUC(0-t) at 2 h / concentration at 1 min / concentration at 0.05 h / concentration at 0.1 h / concentration at 0.2 h / concentration at 20 min / concentration at 35 min / concentration at 55 min / concentration at 80 min / concentration at 2 h / bioavailability at 2 h / concentration at 3 h: dog, plasma, 15 mg; for AUC(0-t) at 2 h / AUC 0-120 min., Individual AUC: 15 mg/dog; for concentration at 1 min / concentration at 0.05 h / concentration at 0.1 h / concentration at 0.2 h / concentration at 20 min / concentration at 35 min / concentration at 55 min / concentration at 80 min / concentration at 2 h / concentration at 3 h / Plasma Concentration: HBr salt 15 mg/dog; for bioavailability at 2 h: relative to intravenous, 0-120 min
Method: The following study was undertaken to determine the bioavailability of dextromethorphan from nasal solution in comparison with the bioavailability of the drug when administered orally and intravenously.
Three female beagle dogs weighing about 10 kg each were used for the study without fasting. For nasal administration, the dogs were anaesthetized with an intravenous injection of 30 mg/kg of sodium pentobarbital, and 0.5 ml of a warm saline solution containing dextromethorphan (30 mg/ml) was then administered to the nasal cavity through the nostrils with a syringe. For oral administration, the dogs were not anaesthetized and 10 ml of a saline solution containing dextromethorphan hydrobromide (1.5 mg/ml) was administered via a stomach tube. For intravenous administration, the dogs were anaesthetized as noted above, and one ml of a saline solution containing dextromethorphan hydrobromide (15 mg/ml) was injected through the cubital vein.
After nasal, oral, and intravenous administration, blood was sampled from the cubital vein periodically. The blood sample, was centrifuged and 2.5 ml of plasma were analyzed. Plasma levels of dextromethorphan were determined spectrofluorophotometrically by a modification of the method of Ramachander, et al., J. Pharm. Sci., 66, 1047 (1977). Specifically, plasma was transferred into a glass tube, 0.5 ml of a saturated solution of sodium carbonate and 10 ml of ethyl acetate were added, and the contents shaken well. After centrifuging, an aliquot (8 ml) of the supernate was transferred into a glass tube containing 1.5 ml of 1.0N HCl, and was extracted into the acid layer after mixing well and centrifuging. The fluorescence of the acid layer was determined by a spectrofluorophotometer, Aminco-Bowman Ratio II, American Instrument Co. The excitation and emission wave lengths were 278 nm and 306 nm, respectively. Recovery of known amounts of dextromethorphan spiked with dog plasma was 50% of the added concentration. For calculating the drug plasma level, the above correction factor was taken into consideration.
Table I reports the plasma concentration of dextromethorphan after nasal, intravenous, and oral administration of 15 mg/dog of dextromethorphan hydrobromide salt.

**Q.** Which results are given for `COc1ccc2c(c1)[C@]13CCCC[C@@H]1[C@H](C2)N(C)CC3` [dextromethorphan, d-3-methoxy-N-methylmorphinan]?
**A.** AUC(0-t) at 2 h (nasal, average of three dogs, read-out: AUC 0-120 min., Average ± S.E. (converted)): 0.472 µg·h/mL; concentration at 1 min (nasal, dog #1, 1 min): 0.0721 µg/mL; concentration at 0.05 h (nasal, dog #1, 3 min): 0.323 µg/mL; concentration at 0.1 h (nasal, dog #1, 6 min): 0.618 µg/mL; concentration at 0.2 h (nasal, dog #1, 12 min): 0.684 µg/mL; concentration at 20 min (nasal, dog #1, 20 min): 0.503 µg/mL; concentration at 35 min (nasal, dog #1, 35 min): 0.276 µg/mL; concentration at 55 min (nasal, dog #1, 55 min): 0.24 µg/mL; concentration at 80 min (nasal, dog #1, 80 min): 0.201 µg/mL; concentration at 2 h (nasal, dog #1, 120 min): 0.154 µg/mL; concentration at 1 min (nasal, dog #2, 1 min): 0.0891 µg/mL; concentration at 0.05 h (nasal, dog #2, 3 min): 0.793 µg/mL; concentration at 0.1 h (nasal, dog #2, 6 min): 0.733 µg/mL; concentration at 0.2 h (nasal, dog #2, 12 min): 0.888 µg/mL; concentration at 20 min (nasal, dog #2, 20 min): 0.26 µg/mL; concentration at 35 min (nasal, dog #2, 35 min): 0.201 µg/mL; concentration at 55 min (nasal, dog #2, 55 min): 0.17 µg/mL; concentration at 80 min (nasal, dog #2, 80 min): 0.183 µg/mL; concentration at 2 h (nasal, dog #2, 120 min): 0.141 µg/mL; concentration at 1 min (nasal, dog #3, 1 min): 0.0842 µg/mL; concentration at 0.05 h (nasal, dog #3, 3 min): 0.428 µg/mL; concentration at 0.1 h (nasal, dog #3, 6 min): 0.493 µg/mL; concentration at 0.2 h (nasal, dog #3, 12 min): 0.385 µg/mL; concentration at 20 min (nasal, dog #3, 20 min): 0.263 µg/mL; concentration at 35 min (nasal, dog #3, 35 min): 0.165 µg/mL; concentration at 55 min (nasal, dog #3, 55 min): 0.129 µg/mL; concentration at 80 min (nasal, dog #3, 80 min): 0.0933 µg/mL; concentration at 2 h (nasal, dog #3, 120 min): 0.108 µg/mL; AUC(0-t) at 2 h (nasal, individual dogs, read-out: AUC 0-120 min., Individual AUC (converted)): 0.568 µg·h/mL; bioavailability at 2 h (nasal): 110%; bioavailability at 2 h (oral): 30.2%; concentration at 1 min (iv, dog #1, 1 min): 1.53 µg/mL; concentration at 0.05 h (iv, dog #1, 3 min): 0.927 µg/mL; concentration at 0.1 h (iv, dog #1, 6 min): 0.708 µg/mL; concentration at 0.2 h (iv, dog #1, 12 min): 0.482 µg/mL; concentration at 20 min (iv, dog #1, 20 min): 0.331 µg/mL; concentration at 35 min (iv, dog #1, 35 min): 0.296 µg/mL; concentration at 55 min (iv, dog #1, 55 min): 0.171 µg/mL; concentration at 80 min (iv, dog #1, 80 min): 0.134 µg/mL; concentration at 2 h (iv, dog #1, 120 min): 0.144 µg/mL; concentration at 1 min (iv, dog #2, 1 min): 1.59 µg/mL; concentration at 0.05 h (iv, dog #2, 3 min): 0.952 µg/mL; concentration at 0.1 h (iv, dog #2, 6 min): 0.532 µg/mL; concentration at 0.2 h (iv, dog #2, 12 min): 0.349 µg/mL; concentration at 20 min (iv, dog #2, 20 min): 0.229 µg/mL; concentration at 35 min (iv, dog #2, 35 min): 0.166 µg/mL; concentration at 55 min (iv, dog #2, 55 min): 0.145 µg/mL; concentration at 80 min (iv, dog #2, 80 min): 0.165 µg/mL; concentration at 2 h (iv, dog #2, 120 min): 0.141 µg/mL; concentration at 1 min (iv, dog #3, 1 min): 1.49 µg/mL; concentration at 0.05 h (iv, dog #3, 3 min): 0.907 µg/mL; concentration at 0.1 h (iv, dog #3, 6 min): 0.43 µg/mL; concentration at 0.2 h (iv, dog #3, 12 min): 0.322 µg/mL; concentration at 20 min (iv, dog #3, 20 min): 0.187 µg/mL; concentration at 35 min (iv, dog #3, 35 min): 0.102 µg/mL; concentration at 55 min (iv, dog #3, 55 min): 0.0814 µg/mL; concentration at 80 min (iv, dog #3, 80 min): 0.0462 µg/mL; concentration at 2 h (iv, dog #3, 120 min): 0.0373 µg/mL; AUC(0-t) at 2 h (iv, intravenous, average of three dogs, read-out: AUC 0-120 min., Average ± S.E. (converted)): 0.431 µg·h/mL; AUC(0-t) at 2 h (iv, intravenous, individual dogs, read-out: AUC 0-120 min., Individual AUC (converted)): 0.537 µg·h/mL; concentration at 20 min (po, dog #1, 20 min): 0.0075 µg/mL; concentration at 35 min (po, dog #1, 35 min): 0.0434 µg/mL; concentration at 55 min (po, dog #1, 55 min): 0.0736 µg/mL; concentration at 80 min (po, dog #1, 80 min): 0.0801 µg/mL; concentration at 2 h (po, dog #1, 120 min): 0.0747 µg/mL; concentration at 3 h (po, dog #1, 180 min): 0.0633 µg/mL; concentration at 0.1 h (po, dog #2, 6 min): 0.0185 µg/mL; concentration at 0.2 h (po, dog #2, 12 min): 0.04 µg/mL; concentration at 20 min (po, dog #2, 20 min): 0.0629 µg/mL; concentration at 35 min (po, dog #2, 35 min): 0.0944 µg/mL; concentration at 55 min (po, dog #2, 55 min): 0.0923 µg/mL; concentration at 80 min (po, dog #2, 80 min): 0.0868 µg/mL; concentration at 2 h (po, dog #2, 120 min): 0.086 µg/mL; concentration at 3 h (po, dog #2, 180 min): 0.0857 µg/mL; concentration at 20 min (po, dog #3, 20 min): 0.0184 µg/mL; concentration at 35 min (po, dog #3, 35 min): 0.0476 µg/mL; concentration at 55 min (po, dog #3, 55 min): 0.065 µg/mL; concentration at 80 min (po, dog #3, 80 min): 0.0955 µg/mL; concentration at 2 h (po, dog #3, 120 min): 0.0915 µg/mL; concentration at 3 h (po, dog #3, 180 min): 0.0534 µg/mL; AUC(0-t) at 2 h (po, oral, average of three dogs, read-out: AUC 0-120 min., Average ± S.E. (converted)): 0.13 µg·h/mL; AUC(0-t) at 2 h (po, oral, individual dogs, read-out: AUC 0-120 min., Individual AUC (converted)): 0.11 µg·h/mL; AUC 0-120 min., Individual AUC (intravenous, individual dogs): 27597.7 ng eq. ml-^1 min and 17668.5 ng eq. ml-^1 min; absorption after nasal administration vs standard oral route (nasal vs oral): more rapid and more complete absorption; blood level after nasal administration (nasal, 15 mg dose, about 5 minutes to about 2 hours, vs injected dose (FIG. 1)): blood levels comparable to an injected dose; AUC 0-120 min., Individual AUC (nasal, individual dogs): 30735.4 ng eq. ml-^1 min and 20139.0 ng eq. ml-^1 min; Plasma Concentration (oral, dog #1, 1 min): 0 ng eq./ml; Plasma Concentration (oral, dog #1, 3 min): 0 ng eq./ml; Plasma Concentration (oral, dog #1, 6 min): 0 ng eq./ml; Plasma Concentration (oral, dog #1, 12 min): 0 ng eq./ml; Plasma Concentration (oral, dog #2, 1 min): 0 ng eq./ml; Plasma Concentration (oral, dog #2, 3 min): 0 ng eq./ml; Plasma Concentration (oral, dog #3, 1 min): 0 ng eq./ml; Plasma Concentration (oral, dog #3, 3 min): 0 ng eq./ml; Plasma Concentration (oral, dog #3, 6 min): 0 ng eq./ml; Plasma Concentration (oral, dog #3, 12 min): 0 ng eq./ml; AUC 0-120 min., Individual AUC (oral, individual dogs): 9356.5 ng eq. ml-^1 min and 7441.6 ng eq. ml-^1 min; blood level after oral administration (oral, same dosage level (15 mg), FIG. 1): considerably lower blood levels
